Reference: US11021481B2, “Substituted isoindolin-1-ones and 2,3-dihydro-1h-pyrrolo[3,4-c]pyridin-1-ones as HPK1 antagonists” (Nimbus Saturn, Inc., priority 2019, dated 2021)
Counter-ions that a name gives are not always drawn.

Molecular target: HPK1 (Homo sapiens (Human), UniProt Q92918)
Experiment: HPK1 biochemical enzyme assay (microfluidic mobility shift assay)
Conditions: 1.5 nM HPK1, ATP 1 mM final, 30 min preincubation, 60 min at RT, Caliper EZ Reader; read-out: HPK1 1000UMATP caliper IC50
In short: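 Mobility shift readout of HPK1 activity after a 60 min RT reaction with 1 mM ATP, 1 μM substrate and 5 mM MgCl2. Enzyme/substrate mix was first exposed to compounds for 30 min, using ten-point curves topping at 3 μM final.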

Sequence of HPK1 (Q92918 whole entry): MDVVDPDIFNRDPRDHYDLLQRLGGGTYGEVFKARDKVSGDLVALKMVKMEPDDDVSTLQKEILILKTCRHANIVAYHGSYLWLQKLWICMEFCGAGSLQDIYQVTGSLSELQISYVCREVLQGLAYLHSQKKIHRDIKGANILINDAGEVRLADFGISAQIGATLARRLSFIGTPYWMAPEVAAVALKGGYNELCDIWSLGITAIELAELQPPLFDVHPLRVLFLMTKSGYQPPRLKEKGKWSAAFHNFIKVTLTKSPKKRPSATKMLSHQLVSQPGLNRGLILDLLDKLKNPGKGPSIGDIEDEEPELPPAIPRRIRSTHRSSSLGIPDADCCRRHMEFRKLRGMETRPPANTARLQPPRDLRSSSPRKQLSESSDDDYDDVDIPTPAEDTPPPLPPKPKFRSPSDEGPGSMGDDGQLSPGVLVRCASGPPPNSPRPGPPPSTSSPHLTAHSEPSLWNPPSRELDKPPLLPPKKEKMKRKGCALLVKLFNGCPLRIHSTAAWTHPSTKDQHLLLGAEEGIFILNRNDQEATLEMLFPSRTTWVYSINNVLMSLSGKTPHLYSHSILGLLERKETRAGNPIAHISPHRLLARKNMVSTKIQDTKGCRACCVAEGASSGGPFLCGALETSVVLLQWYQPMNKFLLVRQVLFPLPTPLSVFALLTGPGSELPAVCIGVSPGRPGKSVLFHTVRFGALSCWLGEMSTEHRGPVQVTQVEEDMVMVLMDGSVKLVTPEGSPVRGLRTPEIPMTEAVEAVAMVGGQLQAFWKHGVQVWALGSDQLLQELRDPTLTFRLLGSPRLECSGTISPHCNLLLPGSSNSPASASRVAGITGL

Row | Compound | IC50 [nM]
1 | CN1CCN(c2ccc(Nc3ccc(-c4cnc5cccnn45)c4c3C(=O)NC4)nc2)CC1 [I-59, 4-imidazo[1,2-b]pyridazin-3-yl-7-[[5-(4-methylpiperazin-1-yl)-2-pyridyl]amino] isoindolin-1-one] | < 100
2 | CC(C)(O)[C@@H]1COCCN(c2ccc(Nc3ccc(-c4cnc5cc(F)ccn45)c4c3C(=O)NC4)nc2)C1 [I-627, (S)-4-(7-fluoroimidazo [1,2-a]pyridin-3-yl)-7-((5-(6-(2-hydroxypropan-2-yl)-1,4-oxazepan-4-yl)pyridin-2-yl)amino)isoin-dolin-1-one] | < 100
3 | CCNC(=O)C(C)(C)c1ccc(Nc2ccc(-c3ccnc4c3ccn4C)c3c2C(=O)NC3)nc1 [I-146, N-ethyl-2-methyl-2-[6-[[7-(1-methylpyrrolo [2,3-b]pyridin-4-yl)-3-oxo-isoindolin-4-yl]amino]-3-pyridyl]propan amide] | < 100
4 | CN(C)Cc1nc(Nc2ccc(-c3ccnc4c3ccn4C)c3c2C(=O)NC3)ccc1[C@@H]1CCOC1 [I-545, (S)-7-((6-((dimethylamino)-methyl)-5-(tetrahydrofuran-3-yl)pyridin-2-yl)amino)-4-(1-methyl-1H-pyrrolo[2,3-b]pyridin-4-yl)isoindolin-1-one] | < 100
5 | CN1CCN(c2ccc(Nc3ccc(-c4ccnc5c4cnn5C)c4c3C(=O)NC4)nc2)CC1 [I-61, 7-[[5-(4-methylpiperazn-1-yl)-2-pyridyl]amino]-4-(1-methylpyrazolo [3,4-b]pyridin-4-yl)isoindolin-1-one] | 100 to 1000
6 | CN(C)Cc1nc(Nc2cnc(-c3ccnc4[nH]ccc34)c3c2C(=O)NC3)ccc1[C@@H]1CCOC1 [I-766, (S)-7-((6-((dimethylamino)-methyl)-5-(tetrahydrofuran-3-yl)pyridin-2-yl)amino)-4-(1H-pyrrolo[2,3-b]pyridin-4-yl)-2,3-dihydro-1H-pyrrolo[3,4-c]pyridin-1-one] | < 100
7 | O=C1NCc2c(-c3cccc4ccnn34)ncc(Nc3ccc(N4CCC(O)CC4)cn3)c21 [I-368, 7-((5-(4-hydroxypiperidin-1-yl)pyridin-2-yl)amino)-4-(pyrazolo[1,5-a]pyridin-7-yl)-2,3-dihydro-1H-pyrrolo[3,4-c]pyridin-1-one] | > 1000
8 | Cn1ccc2c(-c3ccc(Nc4ccc(N5CCC[C@@H](C(C)(C)O)C5)cn4)c4c3CNC4=O)ccnc21 (single isomer, unassigned) [I-281] | < 100
9 | O=C1NCc2c(-c3cnc4cnccn34)ncc(Nc3ccc(N4CCC(O)CC4)cn3)c21 [I-208, 7-[[5-(4-hydroxy-1-piperidyl)-2-pyridyl]-amino]-4-imidazo[1,2-a]pyrazin-3-yl-2,3-dihydropyrrolo [3,4-c]pyridin-1-one] | 100 to 1000
10 | O=C1NCc2c(-c3cnc4cc(F)ccn34)ccc(Nc3ccc(N4CC(O)CCC45CC5)cn3)c21 (stereo not drawn) [I-395, 4-(7-fluoroimidazo [1,2-a]pyridin-3-yl)-7-((5-(6-hydroxy-4-azaspiro[2.5]octan-4-yl)pyridin-2-yl)amino)isoin-dolin-1-one] | < 100
11 | CN1CCN(c2ccc(Nc3ccc(-c4ccnc5c4CCN5)c4c3C(=O)NC4)nc2)CC1 [I-68, 4-(2,3-dihydro-1H-pyrrolo[2,3-b]pyridin-4-yl)-7-[[5-(4-methylpiperazin-1-yl)-2-pyridyl]amino] isoindolin-1-one] | < 100
12 | CN1CCN(c2ccc(Nc3cnc(-c4c[nH]c5ccccc45)c4c3C(=O)NC4)nc2)CC1 [I-2, 4-(1H-indol-3-yl)-7-[[5-(4-methylpiperazin-1-yl)-2-pyridyl]amino]-2,3-dihydropyrrolo [3,4-c]pyridin-1-one] | 100 to 1000
13 | N#Cc1ccn2c(-c3ccc(Nc4ccc(N5CCC(O)CC5)cn4)c4c3CNC4=O)cnc2c1 [I-182, 3-[7-[[5-(4-hydroxy-1-piperidyl)-2-pyridyl]amino]-1-oxo-isoindolin-4-yl]imidazo[1,2-a]pyridine-7-carbonitrile] | < 100
14 | Cc1ccn2c(-c3ccc(Nc4ccc(N5CCC(O)CC5)cn4)c4c3CNC4=O)cnc2c1F [I-151] | < 100
15 | COCC1CN(c2ccc(Nc3ccc(-c4cnc5cnccn45)c4c3C(=O)NC4)nc2)CCO1 (stereo in doubt) [I-334, (R)-4-(imidazo[1,2-a]pyrazin-3-yl)-7-((5-(2-(methoxymeth-yl)morpholino)-pyridin-2-yl)amino)isoin-dolin-1-one] | < 100
16 | CC1(CO)CCN(c2ccc(Nc3ccc(-c4cnc5cc(F)ccn45)c4c3C(=O)NC4)nc2)CC1 [I-433, 4-(7-fluoroimidazo [1,2-a]pyridin-3-yl)-7-((5-(4-(hydroxymeth-yl]-4-methylpiperidin-1-yl)pyridin-2-yl)amino)isoin-dolin-1-one] | < 100
17 | CN(C)C[C@@]1(O)CCCN(c2ccc(Nc3ccc(-c4cnc5cc(F)ccn45)c4c3C(=O)NC4)nc2)C1 [I-568, (S)-7-((5-(3-((dimethylamino)-methyl)-3-hydroxypiperidin-1-yl)pyridin-2-yl)amino)-4-(7-fluoroimidazo [1,2-a]pyridin-3-yl)isoindolin-1-one] | < 100

Further lines, results first:

Row | IC50 [nM] | Compound
18 | < 100 | CC(C)(O)[C@@H]1CCCN(c2ccc(Nc3cnc(-c4cnc5ccccn45)c4c3C(=O)NC4)nc2)C1 [I-220, 7-[[5-[(3R)-3-(1-hydroxy-1-methyl-ethyl)-1-piperidyl]-2-pyridyl]-amino]-4-imidazo[1,2-a]pyridin-3-yl-2,3-dihydropyrrolo [3,4-c]pyridin-1-one]
19 | 100 to 1000 | CN1CCN(c2ccc(Nc3cnc(-c4cccc5[nH]ccc45)c4c3C(=O)NC4)nc2)CC1 [I-252, 4-(1H-indol-4-yl)-7-((5-(4-methylpiperazin-1-yl)pyridin-2-yl)amino)-2,3-dihydro-1H-pyrrolo[3,4-c]pyridin-1-one]
20 | < 100 | CC(C)NCc1nc(Nc2ccc(-c3cnc4cc(F)ccn34)c3c2C(=O)NC3)ccc1[C@H]1CCOC1 [I-559, (R)-4-(7-fluoroimidazo [1,2-a]pyridin-3-yl)-7-((6-((isopropylamino)-methyl)-5-(tetrahydrofuran-3-yl)pyridin-2-yl)amino)isoin-dolin-1-one]
21 | < 100 | O=C1NCc2c(-c3cnn4cccnc34)ccc(Nc3ccc(N4CCNCC4)cn3)c21 [I-117, 7-[(5-piperazin-1-yl-2-pyridyl)amino]-4-pyrazolo[1,5-a]pyrimidin-3-yl-isoindolin-1-one]
22 | 100 to 1000 | CN(C)[C@H]1CCCc2ccc(Nc3ccc(-c4cnc5cc(F)ccn45)c4c3C(=O)NC4)nc21 [I-841, (S)-7-((8-(dimethylam-ino)-5,6.7,8-tetrahydroquin-olin-2-yl)amino)-4-(7-fluoroimidazo [1,2-a]pyridin-3-yl)isoindolin-1-one]
23 | > 1000 | O=C1NCc2c(-c3cccn4ccnc34)ncc(Nc3ccc(N4CCC(O)CC4)cn3)c21 [I-384, 7-((5-(4-hydroxy-piperidin-1-yl)pyridin-2-yl)amino)-4-(imidazo[1,2-a]pyridin-8-yl)-2,3-dihydro-1H-pyrrolo[3,4-c]pyridin-1-one]
24 | < 100 | COCC1CN(c2ccc(Nc3ccc(-c4cnc5nc(C)ccn45)c4c3C(=O)NC4)nc2)CCO1 (stereo in doubt) [I-629, (S)-7-((5-(2-(methoxymeth-yl)morpho-lino)pyridin-2-yl)amino)-4-(7-methylimidazo [1,2-a]pyrimidin-3-yl) isoindolin-1-one]
25 | < 100 | O=C1NCc2c(-c3cnc4cc(F)ccn34)ccc(Nc3ccc([C@@H]4CCOC4)c(CNCC(F)(F)F)n3)c21 [I-751, (S)-4-(7-fluoroimidazo [1,2-a]pyridin-3-yl)-7-((5-(tetrahydrofuran-3-yl)-6-(((2,2,2-trifluoroethyl)amino)methyl)pyridin-2-yl)amino)isoin-dolin-1-one]
26 | < 100 | CNC1CN(c2cccc(Nc3cnc(-c4ccnc5c4ccn5C)c4c3C(=O)NC4)n2)C1 [I-449, 7-[[6-[3-(methylamino)azetidin-1-yl]-2-pyridyl]amino]-4-(1-methylpyrrolo [2,3-b]pyridin-4-yl)-2,3-dihydropyrrolo [3,4-c]pyridin-1-one Formic acid salt]
27 | < 100 | CN1CCN(c2ccc(Nc3ccc(-c4ccnc5c4ccn5C)c4c3C(=O)NC4)nc2)CC1 [I-33, 7-[[5-(4-methylpiperazin-1-yl)-2-pyridyl]amino]-4-(1-methylpyrrolo [2,3-b]pyridin-4-yl)isoindolin-1-one]
28 | < 100 | CNCc1nc(Nc2cnc(-c3ccnc4c3ccn4C)c3c2C(=O)NC3)ccc1[C@H]1CCOC1 (single isomer, unassigned) [I-814]
29 | < 100 | O=C1NCc2c(-c3cnc4cc(F)ccn34)ccc(Nc3ccc([C@H]4CCOC4)c(CN4CCC4)n3)c21 [I-755, (R)-7-((6-(azetidin-1-ylmethyl)-5-(tetrahydrofuran-3-yl)pyridin-2-yl)amino)-4-(7-fluoroimidazo [1,2-a]pyridin-3-yl)isoindolin-1-one]
30 | < 100 | CN1CC(Oc2nc(Nc3ccc(-c4cnc5cc(F)ccn45)c4c3C(=O)NC4)ccc2[C@H]2CCOC2)C1 [I-815]
31 | < 100 | CN(C)Cc1nc(Nc2ccc(-c3cnc4cc(F)ccn34)c3c2C(=O)NC3)ccc1O[C@H]1CCOC1 [I-544, 7-[[6-[(dimethylamino)-methyl]-5-[(3S)-tetrahydrofuran-3-yl]oxy-2-pyridyl]amino]-4-(7-fluoroimidazo [1,2-a]pyridin-3-yl)isoindolin-1-one]
32 | < 100 | CN1CCN(CC2(O)CCN(c3ccc(Nc4ccc(-c5cnc6cc(F)ccn56)c5c4C(=O)NC5)nc3)CC2)CC1 [I-365, 4-(7-fluoroimidazo [1,2-a]pyridin-3-yl)-7-((5-(4-hydroxy-4-((4-methylpiperazin-1-yl)methyl)pip-eridin-1-yl)pyridin-2-yl)amino)isoin-dolin-1-one]
33 | < 100 | Cn1ccc2c(-c3ccc(Nc4ccc(N5CCNCC5)cn4)c4c3CNC4=O)ncnc21 [I-123, 4-(7-methylpyrrolo [2,3-d]pyrimidin-4-yl)-7-[(5-piperazin-1-yl-2-pyridyl)amino] isoindolin-1-one]
